# Calls of active or inactive are those of the source. The rule behind the calls is not given here.
# Key:
# HEK293 = experiment: Selectivity ratio of EC50 for human GLP1R expressed in HEK293 cells to EC50 for human GLP2R expressed in HEK293; assay type: cell-based
# [1] = target: T1, Glucagon-like peptide 2 receptor (Homo sapiens, UniProt O95838); experiment: Agonist activity at human GLP2R expressed in HEK293 cells after 5 hrs by luciferase reporter gene assay; assay type: cell-based
# T1 sequence (O95838 whole entry): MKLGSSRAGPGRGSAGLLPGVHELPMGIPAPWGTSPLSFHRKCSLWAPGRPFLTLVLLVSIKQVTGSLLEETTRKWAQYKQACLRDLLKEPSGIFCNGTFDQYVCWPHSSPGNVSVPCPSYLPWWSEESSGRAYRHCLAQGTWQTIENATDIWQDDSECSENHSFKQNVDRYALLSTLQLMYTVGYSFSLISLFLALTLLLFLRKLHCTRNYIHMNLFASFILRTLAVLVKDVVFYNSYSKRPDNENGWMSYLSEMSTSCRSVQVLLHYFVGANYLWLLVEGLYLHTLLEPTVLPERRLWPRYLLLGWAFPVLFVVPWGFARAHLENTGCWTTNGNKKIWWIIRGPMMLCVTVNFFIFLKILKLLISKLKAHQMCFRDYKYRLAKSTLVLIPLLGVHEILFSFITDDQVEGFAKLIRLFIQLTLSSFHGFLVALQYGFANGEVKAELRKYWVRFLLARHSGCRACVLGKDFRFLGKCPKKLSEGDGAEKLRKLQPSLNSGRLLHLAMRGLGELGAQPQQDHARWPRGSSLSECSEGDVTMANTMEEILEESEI
# [2] = target: Glucagon receptor (Homo sapiens) (UniProt P47871); experiment: Agonist activity at human GCGR expressed in HEK293 cells after 5 hrs by luciferase reporter gene assay; assay type: cell-based
# Chain of Glucagon receptor (Homo sapiens) (P47871 whole entry): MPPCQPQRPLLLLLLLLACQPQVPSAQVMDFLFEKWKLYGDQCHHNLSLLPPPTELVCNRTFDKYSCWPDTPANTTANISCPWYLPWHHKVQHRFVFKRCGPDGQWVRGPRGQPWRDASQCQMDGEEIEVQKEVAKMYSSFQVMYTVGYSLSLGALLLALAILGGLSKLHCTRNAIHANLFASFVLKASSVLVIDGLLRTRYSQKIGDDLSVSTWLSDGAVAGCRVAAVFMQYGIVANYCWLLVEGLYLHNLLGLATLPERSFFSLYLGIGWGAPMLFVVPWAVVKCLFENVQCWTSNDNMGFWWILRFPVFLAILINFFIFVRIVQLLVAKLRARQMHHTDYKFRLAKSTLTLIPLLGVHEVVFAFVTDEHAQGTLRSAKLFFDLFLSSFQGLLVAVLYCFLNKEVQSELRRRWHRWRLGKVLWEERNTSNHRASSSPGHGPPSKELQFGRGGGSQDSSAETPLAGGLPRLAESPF
# [3] = Systemic clearance in Sprague-Dawley rat at 0.2 mg/kg, iv through cassette dosing measured up to 300 mins by LC/MS/MS analysis; assay type: ADME, organism-based; details: in vivo
# [4] = target: Glucagon-like peptide 1 receptor (Homo sapiens, UniProt P43220); experiment: Agonist activity at human GLP1R expressed in HEK293 cells after 5 hrs by luciferase reporter gene assay; assay type: cell-based
# Chain of Glucagon-like peptide 1 receptor (P43220 whole entry): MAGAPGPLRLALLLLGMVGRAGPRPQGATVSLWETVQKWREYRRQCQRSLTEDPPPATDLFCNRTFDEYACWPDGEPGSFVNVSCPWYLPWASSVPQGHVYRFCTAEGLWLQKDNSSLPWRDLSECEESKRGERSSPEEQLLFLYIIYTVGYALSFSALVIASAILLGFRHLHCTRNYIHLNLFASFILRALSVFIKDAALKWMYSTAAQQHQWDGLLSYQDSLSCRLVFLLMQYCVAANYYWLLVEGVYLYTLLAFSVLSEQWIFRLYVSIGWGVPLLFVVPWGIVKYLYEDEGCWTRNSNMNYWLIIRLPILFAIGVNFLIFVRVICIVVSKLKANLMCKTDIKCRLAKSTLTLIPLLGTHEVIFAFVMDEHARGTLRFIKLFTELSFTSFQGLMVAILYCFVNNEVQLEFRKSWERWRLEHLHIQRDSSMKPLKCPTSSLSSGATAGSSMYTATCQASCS
Structure (SMILES),Ratio EC50 (HEK293),EC50 [1] [nM],Activity [2],clearance [3] [mL/min/kg],EC50 [4] [nM]
CCCCC(NC(=O)[C@H](CCC(=O)O)NC(=O)[C@H](CC(=O)O)NC(=O)[C@H](CO)NC(=O)[C@H](Cc1ccccc1)NC(=O)[C@H](CO)NC(=O)CNC(=O)[C@H](CC(=O)O)NC(=O)CNC(=O)[C@@H](N)Cc1cnc[nH]1)C(=O)N[C@H](CCN)C(=O)N[C@H](C(=O)N[C@H](C(=O)N[C@@H](CC(C)C)C(=O)N[C@@H](CC(=O)O)C(=O)N[C@@H](CC(N)=O)C(=O)N[C@@H](CC(C)C)C(=O)N[C@@H](C)C(=O)N[C@@H](C)C(=O)N[C@@H](CCCNC(=N)N)C(=O)N[C@@H](CC(=O)O)C(=O)N[C@@H](Cc1ccccc1)C(=O)N[C@H](C(=O)N[C@@H](CC(N)=O)C(=O)N[C@@H](Cc1c[nH]c2ccccc12)C(=O)N[C@@H](CC(C)C)C(=O)N[C@H](C(=O)N[C@@H](CCC(N)=O)C(=O)N[C@H](C(=O)N[C@@H](CCCCN)C(N)=O)[C@@H](C)O)[C@@H](C)CC)[C@@H](C)CC)[C@@H](C)CC)[C@@H](C)O (stereo partly drawn),> 1500,0.66,inactive,9.7,> 1000
CCCCC(NC(=O)[C@H](CCC(=O)O)NC(=O)[C@H](CC(=O)O)NC(=O)[C@H](CO)NC(=O)[C@H](Cc1ccccc1)NC(=O)[C@H](CO)NC(=O)CNC(=O)[C@H](CC(=O)O)NC(=O)CNC(=O)[C@@H](N)Cc1cnc[nH]1)C(=O)N[C@H](Cc1cccc(Cl)c1)C(=O)N[C@H](C(=O)N[C@H](C(=O)N[C@@H](CC(C)C)C(=O)N[C@@H](CC(=O)O)C(=O)N[C@@H](Cc1ccccc1)C(=O)N[C@@H](CC(C)C)C(=O)N[C@@H](C)C(=O)N[C@@H](C)C(=O)N[C@@H](CCCNC(=N)N)C(=O)N[C@@H](CC(=O)O)C(=O)N[C@@H](Cc1ccccc1)C(=O)N[C@H](C(=O)N[C@@H](CC(N)=O)C(=O)N[C@@H](Cc1c[nH]c2ccccc12)C(=O)N[C@@H](CC(C)C)C(=O)N[C@H](C(=O)N[C@@H](CCC(N)=O)C(=O)N[C@H](C(=O)N[C@@H](CCCCN)C(=O)N[C@H](C(=O)N[C@H](C(=O)N[C@@H](CC(=O)O)C(N)=O)[C@@H](C)O)[C@@H](C)CC)[C@@H](C)O)[C@@H](C)CC)[C@@H](C)CC)[C@@H](C)CC)[C@@H](C)O (stereo partly drawn),> 7600,0.13,–,0.12,> 1000
CCCCC(NC(=O)[C@@H](CCC(=O)O)NC(=O)[C@@H](CC(=O)O)NC(=O)[C@@H](CO)NC(=O)[C@@H](Cc1ccccc1)NC(=O)[C@@H](CO)NC(=O)CNC(=O)[C@@H](CC(=O)O)NC(=O)CNC(=O)[C@@H](N)Cc1cnc[nH]1)C(=O)N[C@@H](Cc1cccc(Cl)c1)C(=O)N[C@@H](C(=O)N[C@@H](C(=O)N[C@H](CC(C)C)C(=O)N[C@H](CC(=O)O)C(=O)NC(Cc1ccc2ccccc2c1)C(=O)N[C@@H](CC(C)C)C(=O)N[C@@H](C)C(=O)N[C@@H](C)C(=O)N[C@@H](CCCNC(=N)N)C(=O)N[C@@H](CC(=O)O)C(=O)N[C@@H](Cc1ccccc1)C(=O)N[C@H](C(=O)N[C@@H](CC(N)=O)C(=O)N[C@H](Cc1c[nH]c2ccccc12)C(=O)N[C@H](CC(C)C)C(=O)N[C@@H](C(=O)N[C@H](CCC(N)=O)C(=O)N[C@@H](C(=O)N[C@H](CCCCN)C(=O)N[C@@H](C(=O)N[C@@H](C(=O)N[C@@H](CC(=O)O)C(N)=O)[C@H](C)O)[C@@H](C)CC)[C@H](C)O)[C@@H](C)CC)[C@H](C)CC)[C@@H](C)CC)[C@H](C)O (stereo partly drawn),> 1900,0.51,–,0.11,> 1000
CCCCC(NC(=O)[C@H](CCC(=O)O)NC(=O)[C@H](CC(=O)O)NC(=O)[C@H](CO)NC(=O)[C@H](Cc1ccccc1)NC(=O)[C@H](CO)NC(=O)CNC(=O)[C@H](CC(=O)O)NC(=O)CNC(=O)[C@@H](N)Cc1cnc[nH]1)C(=O)N[C@H](Cc1ccccc1)C(=O)N[C@H](C(=O)N[C@H](C(=O)N[C@@H](CC(C)C)C(=O)N[C@@H](CC(=O)O)C(=O)N[C@@H](CC(C)C)C(=O)N[C@@H](CC(C)C)C(=O)N[C@@H](C)C(=O)N[C@@H](C)C(=O)N[C@@H](CCCNC(=N)N)C(=O)N[C@@H](CC(=O)O)C(=O)N[C@@H](Cc1ccccc1)C(=O)N[C@H](C(=O)N[C@@H](CC(N)=O)C(=O)N[C@@H](Cc1c[nH]c2ccccc12)C(=O)N[C@@H](CC(C)C)C(=O)N[C@H](C(=O)N[C@@H](CCC(N)=O)C(=O)N[C@H](C(=O)N[C@@H](CCCCN)C(=O)N[C@H](C(=O)N[C@H](C(=O)N[C@@H](CC(=O)O)C(=O)NCc1ccncc1)[C@@H](C)O)[C@@H](C)CC)[C@@H](C)O)[C@@H](C)CC)[C@@H](C)CC)[C@@H](C)CC)[C@@H](C)O (stereo partly drawn),> 25000,0.04,–,0.27,> 1000
CCCCC(NC(=O)[C@H](CCC(=O)O)NC(=O)[C@H](CC(=O)O)NC(=O)[C@H](CO)NC(=O)[C@H](Cc1ccccc1)NC(=O)[C@H](CO)NC(=O)CNC(=O)[C@H](CC(=O)O)NC(=O)CNC(=O)[C@@H](N)Cc1cnc[nH]1)C(=O)N[C@H](Cc1cccs1)C(=O)N[C@H](C(=O)N[C@H](C(=O)N[C@@H](CC(C)C)C(=O)N[C@@H](CC(=O)O)C(=O)N[C@@H](Cc1ccccc1)C(=O)N[C@@H](CC(C)C)C(=O)N[C@@H](C)C(=O)N[C@@H](C)C(=O)N[C@@H](CCCNC(=N)N)C(=O)N[C@@H](CC(=O)O)C(=O)N[C@@H](Cc1ccccc1)C(=O)N[C@H](C(=O)N[C@@H](CC(N)=O)C(=O)N[C@@H](Cc1c[nH]c2ccccc12)C(=O)N[C@@H](CC(C)C)C(=O)N[C@H](C(=O)N[C@@H](CCC(N)=O)C(=O)N[C@H](C(=O)N[C@@H](CCCCN)C(=O)N[C@H](C(=O)N[C@H](C(=O)N[C@@H](CC(=O)O)C(N)=O)[C@@H](C)O)[C@@H](C)CC)[C@@H](C)O)[C@@H](C)CC)[C@@H](C)CC)[C@@H](C)CC)[C@@H](C)O (stereo partly drawn),> 14000,0.07,–,0.15,> 1000
CCCCC(NC(=O)[C@H](CCC(=O)O)NC(=O)[C@H](CC(=O)O)NC(=O)[C@H](CO)NC(=O)[C@H](Cc1ccccc1)NC(=O)[C@H](CO)NC(=O)CNC(=O)[C@H](CC(=O)O)NC(=O)CNC(=O)[C@@H](N)Cc1cnc[nH]1)C(=O)N[C@H](Cc1ccccc1)C(=O)N[C@H](C(=O)N[C@H](C(=O)N[C@@H](CC(C)C)C(=O)N[C@@H](CC(=O)O)C(=O)N[C@@H](Cc1ccccc1)C(=O)N[C@@H](CC(C)C)C(=O)N[C@@H](C)C(=O)N[C@@H](C)C(=O)N[C@@H](CCCNC(=N)N)C(=O)N[C@@H](CC(=O)O)C(=O)N[C@@H](Cc1ccccc1)C(=O)N[C@H](C(=O)N[C@@H](CC(N)=O)C(=O)N[C@@H](Cc1c[nH]c2ccccc12)C(=O)N[C@@H](CC(C)C)C(=O)N[C@H](C(=O)N[C@@H](CCC(N)=O)C(=O)N[C@H](C(=O)N[C@@H](CCCCN)C(N)=O)[C@@H](C)O)[C@@H](C)CC)[C@@H](C)CC)[C@@H](C)CC)[C@@H](C)O (stereo partly drawn),> 11000,0.09,–,0.3,> 1000
CCCCC(NC(=O)[C@H](CCC(=O)O)NC(=O)[C@H](CC(=O)O)NC(=O)[C@H](CO)NC(=O)[C@H](Cc1ccccc1)NC(=O)[C@H](CO)NC(=O)CNC(=O)[C@H](CC(=O)O)NC(=O)CNC(=O)[C@@H](N)Cc1cnc[nH]1)C(=O)N[C@H](Cc1ccccc1)C(=O)N[C@H](C(=O)N[C@H](C(=O)N[C@@H](CC(C)C)C(=O)N[C@@H](CC(=O)O)C(=O)N[C@@H](CC(C)C)C(=O)N[C@@H](CC(C)C)C(=O)N[C@@H](C)C(=O)N[C@@H](C)C(=O)N[C@@H](CCCNC(=N)N)C(=O)N[C@@H](CC(=O)O)C(=O)N[C@@H](Cc1ccccc1)C(=O)N[C@H](C(=O)N[C@@H](CC(N)=O)C(=O)N[C@@H](Cc1c[nH]c2ccccc12)C(=O)N[C@@H](CC(C)C)C(=O)N[C@H](C(=O)N[C@@H](CCC(N)=O)C(=O)N[C@H](C(=O)N[C@@H](CCCCN)C(=O)N[C@H](C(=O)N[C@H](C(=O)N[C@@H](CC(=O)O)C(=O)NCc1ccccc1)[C@@H](C)O)[C@@H](C)CC)[C@@H](C)O)[C@@H](C)CC)[C@@H](C)CC)[C@@H](C)CC)[C@@H](C)O (stereo partly drawn),> 10000,0.1,–,0.1,> 1000
CCCCC(NC(=O)[C@H](CCC(=O)O)NC(=O)[C@H](CC(=O)O)NC(=O)[C@H](CO)NC(=O)[C@H](Cc1ccccc1)NC(=O)[C@H](CO)NC(=O)CNC(=O)[C@H](CC(=O)O)NC(=O)CNC(=O)[C@@H](N)Cc1cnc[nH]1)C(=O)N[C@H](Cc1ccccc1)C(=O)N[C@H](C(=O)N[C@H](C(=O)N[C@@H](CC(C)C)C(=O)N[C@@H](CC(=O)O)C(=O)N[C@@H](CC(C)C)C(=O)N[C@@H](CC(C)C)C(=O)N[C@@H](C)C(=O)N[C@@H](C)C(=O)N[C@@H](CCCNC(=N)N)C(=O)N[C@@H](CC(=O)O)C(=O)N[C@@H](Cc1ccccc1)C(=O)N[C@H](C(=O)N[C@@H](CC(N)=O)C(=O)N[C@@H](Cc1c[nH]c2ccccc12)C(=O)N[C@@H](CC(C)C)C(=O)N[C@H](C(=O)N[C@@H](CCC(N)=O)C(=O)N[C@H](C(=O)N[C@@H](CCCCN)C(=O)N[C@H](C(=O)N[C@H](C(=O)N[C@@H](CC(=O)O)C(=O)NCCCOCCOCCOCCCNC(=O)COCC(N)=O)[C@@H](C)O)[C@@H](C)CC)[C@@H](C)O)[C@@H](C)CC)[C@@H](C)CC)[C@@H](C)CC)[C@@H](C)O (stereo partly drawn),> 33000,0.03,–,0.28,> 1000
